Key:
[1] = test system: Vibrio campbellii BAA 1118 (AI-1); test: microbe, parasite or virus in culture; type: cell-based; settings: for EC50: Vibrio campbellii, BAA1118, 16 h, read-out: EC50 (concentration that halved the communication); for SI (selectivity index): ratio IC50 (viability) / EC50 (communication), BAA 1118
Source text: (§1) Commercially available strains of Vibrio campbellii were used to evaluate the ability of flavonoids and their derivatives to inhibit bacterial quorum sensing. V. campbellii uses two types of autoinducing molecules for its communication—N-acyl-homoserine lactones (Autoinducer I, AI-1, strain BAA 1118) and furanosyl borate diester (Autoinducer II, AI-2, strain BAA 1119). AI-1-based communication is mainly used by Gram-negative bacteria, while AI-2-based communication is found in both Gram-negative and Gram-positive bacteria. The mutant strains of V. campbellii BA1118 and BA1119 respond only to AI-1 or AI-2, respectively, and the response to the respective AI concentration is measured as luminescence. The higher the AI concentration, the higher the luminescence signal. The ability to inhibit the communication was expressed as the selectivity index (SI), calculated as the ratio between the concentration that halved the viability (IC50) and the concentration that halved the communication (EC50) of the respective V. campbellii strains. […] The antimicrobial activity of quorum-sensing inhibitors is undesirable because it creates a selection pressure and can lead to the development of resistance.
(§2) The inhibition of bacterial extracellular communication was measured using Vibrio campbellii strains BAA-1118 and BAA-1119. The experiment was performed according to the methods of Szemerédi et al.. Briefly, 5 × 10^5 CFU/mL (colony-forming units per milliliter) were seeded in an Autoinducer Bioassay medium (NaCl 17.5 g/L, MgSO4 12.3 g/L, Casamino acids 2 g/L, 10 mL of 1 M potassium phosphate pH 7.0, 10 mL of 0.1 M L-arginine, and 10 mL of glycerol in 970 mL of deionized water) in a 96-well plate. Immediately, the tested compounds were added at the final concentration of 0.2–200 µM and luminescence was recorded for 16 h by a SpectraMax i3x microplate reader set at 30 °C, an integration time of 10,000 ms, and shaking for 60 s before measurement. […] The selectivity index was calculated as the […]. The EC50 and IC50 were calculated using GraphPad Prism software version 5.00 for Windows with a nonlinear regression curve fit.

[2] = test system: Vibrio campbellii BAA 1119 (AI-2); test: microbe, parasite or virus in culture; type: cell-based; settings: for EC50: Vibrio campbellii, BAA1119, 16 h, read-out: EC50 (concentration that halved the communication); for SI (selectivity index): ratio IC50 (viability) / EC50 (communication), BAA 1119
Source text: as §1, §2

[3] = test system: Vibrio campbellii BAA 1118 (AI-1); test: Viability of the quorum-sensing reporter culture (resazurin assay), AI-1 strain; type: cell-based; settings: BAA1118, V. campbellii BAA 1118, resazurin assay, read-out: IC50 (concentration that halved the viability)
Source text: as §1, §2

[4] = test system: Vibrio campbellii BAA 1119 (AI-2); test: Viability of the quorum-sensing reporter culture (resazurin assay), AI-2 strain; type: cell-based; settings: BAA1119, V. campbellii BAA 1119, resazurin assay, read-out: IC50 (concentration that halved the viability)
Source text: as §1, §2

[5] = test system: multidrug-resistant P. aeruginosa; test: Sensitization of antibiotic-resistant bacteria (compound plus breakpoint antibiotic concentration); type: cell-based, Pseudomonas aeruginosa; settings: flavonoid 40 µM, 24 h; for Effect on viability in combination with colistin: colistin 2 mg/L; for Effect on viability in combination with imipenem: imipenem 4 mg/L; as to Effect on viability in combination with imipenem: key: -: no effect (100% viability) was observed up to the highest flavonolignan concentration tested (>40 µM); reversion of resistance: the compound reversed the resistant phenotype to a sensitive one
Experimental: Clinically relevant antibiotics were selected for sensitization testing according to the European Committee on Antimicrobial Susceptibility Testing (EUCAST). Neither colistin and imipenem at breakpoint concentrations (according to EUCAST, […] and […]) affected the growth of the multidrug-resistant clinical strain of P. aeruginosa. Similarly, neither chloramphenicol and gentamicin at breakpoint concentrations ([…], respectively) affected the multidrug-resistant clinical strain of S. aureus. Flavonoids and their derivatives (1–40 µM) were used in combination therapy, along with the breakpoint concentration of antibiotics. After co-incubation, the minimum inhibitory concentration of flavonoids inhibiting the visible growth of bacteria was determined (Table 2).
Clinical isolates of P. aeruginosa and S. aureus were obtained from the General University Hospital in Prague (Prague, Czech Republic). P. aeruginosa was resistant to ciprofloxacin, oxacillin, ticarcillin, colistin, gentamicin, and imipenem. S. aureus was resistant to ciprofloxacin, gentamicin, erythromycin, chloramphenicol, clindamycin, oxacillin, cefotaxime, and vancomycin. Bacteria were cultivated in Mueller–Hinton broth (MH broth, Merck). The susceptibility of the bacteria was evaluated by the minimum inhibitory concentrations (MIC). The MIC of derivatives in the presence of the antibiotic cut-off concentration was determined according to ISO 20776-1: 2020. The antibiotic cut-off concentration was chosen according to the European Committee on Antimicrobial Susceptibility Testing (EUCAST, Clinical breakpoints—bacteria (ver. 11.0), 1 January 2021). The 40 µM concentration of the derivatives was chosen as the highest concentration for the tests. Cell viability was determined by measuring absorbance (A590 nm) after 24 h incubation at 37 °C, 150 rpm.

[6] = ABTS cation radical scavenging; settings: vitamin C equivalent antioxidant capacity
Experimental: (§3) To further elucidate how halogenation affects other properties of the flavonoids studied, their 2,2′-azino-bis-(3-ethylbenzothiazoline-6-sulfonic acid) cation (ABTS) and 1,1-diphenyl-2-picrylhydrazyl (DPPH) radical scavenging, the Folin–Ciocalteu reagent (FCR) reducing, the ferric-reducing antioxidant power (FRAP), and the anti-lipoperoxidation activities were evaluated by in vitro methods (Supplementary Information Tables S1 and S2).
(§4) The antiradical activity was evaluated by the ability to scavenge ABTS and DPPH radicals. Reducing capacity was assessed by the ability to reduce the Folin–Ciocalteu reagent (FCR) and ferric ions (FRAP). The ability to inhibit lipid peroxidation of pooled male rat microsomal liver membranes induced by tert-butyl hydroperoxide was also evaluated and the results were expressed as IC50 values.

[7] = Folin-Ciocalteu reagent reduction; settings: gallic acid equivalents
Experimental: as §3, §4

[8] = Ferric reducing antioxidant power (FRAP); settings: Fe2+ equivalents
Experimental: as §3, §4

DPPH radical scavenging = settings: 1,1-diphenyl-2-picrylhydrazyl radical scavenging
Experimental: as §3, §4

[9] = test system: pooled male rat microsomal liver membranes; test: Inhibition of lipid peroxidation induced by tert-butyl hydroperoxide; type: biochemical; settings: male rat microsomes, read-out: ILP IC50
Experimental: as §4

[10] = test system: lipopolysaccharide-stimulated macrophages (RAW 264.7); test: Inhibition of nitric oxide production (Griess reagent); type: cell-based, murine; settings: Mus musculus, RAW264.7; LPS 100 ng/mL, 24 h; highest tested concentration 100 µM; read-out: NO Production IC50
Experimental: The anti-inflammatory activity of the tested flavonolignans was determined as the ability to reduce nitric oxide production by murine macrophages (RAW 264.7) stimulated by bacterial lipopolysaccharides, as previously described. […] For the experiment, 1 × 10^6 cells/mL was seeded into the 96-well plate (100 µL/well). […] After 24 h, the medium was mixed with Griess reagent (0.04 g/mL), prepared freshly in deionized water at the ratio of 1:1. The absorbance was measured after 15 min at 540 nm by the SpectraMax i3x microplate reader. Cell viability was determined by resazurin assay.

## COc1cc(C2Oc3cc(-c4oc5cc(O)cc(O)c5c(=O)c4O)ccc3OC2CO)ccc1O (centres unmarked) [compound 4, 2,3-dehydrosilybin AB, reference compound]
[1]
  EC50: 59.9 ± 2 µM
  SI (selectivity index): 2.7 ± 0.2
[2]
  EC50: 10.2 ± 0.4 µM
  SI (selectivity index): 2.5 ± 0.2
[3]
  IC50: 163 ± 3.8 µM
[4]
  IC50: 25.3 ± 1 µM
[5]
  Effect on viability in combination with colistin: -
  Effect on viability in combination with imipenem: -
[6]
  ABTS [CEAC]: 1.46 ± 0.08 CEAC
[7]
  FCR [GAE]: 1.68 ± 0.03 GAE
[8]
  FRAP [Fe2+eq]: 0.72 ± 0.03 Fe2+eq
DPPH radical scavenging
  IC50: 14.4 µM
[9]
  IC50: 34.6 ± 2.3 µM
[10]
  IC50: 27.9 ± 0.5 µM

## COc1cc([C@@H]2Oc3c(O)cc([C@H]4Oc5cc(O)cc(O)c5C(=O)[C@@H]4O)cc3[C@H]2CO)ccc1O [compound 5, silychristin A, reference compound]
[1]
  EC50: > 200 µM
[2]
  EC50: > 200 µM
[3]
  IC50: > 200 µM
[4]
  IC50: > 200 µM
[5]
  Effect on viability in combination with colistin: -
  Effect on viability in combination with imipenem: -
[6]
  ABTS [CEAC]: 1.73 ± 0.02 CEAC
[7]
  FCR [GAE]: 1.87 ± 0.07 GAE
[8]
  FRAP [Fe2+eq]: 0.25 ± 0.02 Fe2+eq
DPPH radical scavenging
  IC50: 47.2 µM
[9]
  IC50: 129 µM
[10]
  IC50: 72.5 ± 5.4 µM

## COc1cc([C@@H]2Oc3c(O)cc(-c4oc5cc(O)cc(O)c5c(=O)c4O)cc3[C@H]2CO)ccc1O [compound 6, 2,3-dehydrosilychristin A, reference compound]
[1]
  EC50: 22.3 ± 1 µM
  SI (selectivity index): 1.9 ± 0.2
[2]
  EC50: 11.1 ± 0.1 µM
  SI (selectivity index): 0.99 ± 0.05
[3]
  IC50: 43 ± 1.5 µM
[4]
  IC50: 11 ± 0.4 µM
[5]
  Effect on viability in combination with colistin: -
  Effect on viability in combination with imipenem: -
[6]
  ABTS [CEAC]: 2.10 CEAC
[7]
  FCR [GAE]: 2.43 GAE
[8]
  FRAP [Fe2+eq]: 1.16 Fe2+eq
DPPH radical scavenging
  IC50: 10.8 ± 0.4 µM
[9]
  IC50: 51.9 ± 2.2 µM
[10]
  IC50: 42.1 ± 2.7 µM

## O=C1c2c(cc(O)c(Br)c2O)O[C@H](c2ccc(O)c(O)c2)[C@H]1O [compound 7, 6-Bromotaxifolin]
[1]
  EC50: 38.9 ± 1.6 µM
  SI (selectivity index): 1.5 ± 0.1
[2]
  EC50: 11.9 ± 0.5 µM
  SI (selectivity index): 1.7 ± 0.2
[3]
  IC50: 59 ± 0.1 µM
[4]
  IC50: 19.7 ± 1 µM
[5]
  Effect on viability in combination with colistin: -
  Effect on viability in combination with imipenem: -
[6]
  ABTS [CEAC]: 0.97 ± 0.03 CEAC
[7]
  FCR [GAE]: 1.70 ± 0.01 GAE
[8]
  FRAP [Fe2+eq]: 1.33 ± 0.03 Fe2+eq
DPPH radical scavenging
  IC50: 7.77 µM
[9]
  IC50: 201 µM
[10]
  IC50: 78.4 ± 7.8 µM

## O=C1c2c(O)c(Br)c(O)c(Br)c2O[C@H](c2ccc(O)c(O)c2)[C@H]1O [compound 8, 6,8-dibromotaxifolin]
[1]
  EC50: 38.1 ± 2 µM
  SI (selectivity index): 1.5 ± 0.1
[2]
  EC50: 10.1 ± 0.4 µM
  SI (selectivity index): 10.8 ± 0.6
[3]
  IC50: 55.5 ± 1 µM
[4]
  IC50: 109.3 ± 0.8 µM
[5]
  Effect on viability in combination with colistin: -
  Effect on viability in combination with imipenem: -
[6]
  ABTS [CEAC]: 1.04 ± 0.05 CEAC
[7]
  FCR [GAE]: 2.08 ± 0.04 GAE
[8]
  FRAP [Fe2+eq]: 2.20 ± 0.03 Fe2+eq
DPPH radical scavenging
  IC50: 4.37 µM
[9]
  IC50: 22.5 ± 1 µM
[10]
  IC50: 62.2 ± 4.2 µM

— article PMC9738062, “Selectively Halogenated Flavonolignans—Preparation and Antibacterial Activity” (International Journal of Molecular Sciences, 2022)
